Test results as given in patent publication US12257325B2, “Chelating platform for delivery of radionuclides” (priority 2016, dated 2025).

How the values were obtained:
[1] = cited from earlier work
[2] = Incremental spectrophotometric titrations: protonation constants of 3,4,3-LI(CAM); type: physicochemical; conditions: I=0.1 M (KCl), T=25° C.; lower values = higher acidity
Experimental: (§1) Solution Thermodynamics. All titrant solutions were degassed by boiling for 1 h while being purged under Ar. Carbonate-free 0.1 M KOH was prepared from concentrate (J.T Baker Dilut-It) and was standardized by titrating against 0.1 M potassium hydrogen phthalate (99.95%, Sigma Aldrich). Solutions of 0.1 M HCl were similarly prepared and were standardized by titrating against TRIS (99.9%, J.T. Baker). The glass electrode (Metrohm-Micro Combi-response to [H+]) used for the pH measurements was calibrated at 25.0° C. and at an ionic strength of 0.1 M (KCl) before each potentiometric or spectrophotometric titration. The calibration data were analyzed using the program GLEE (Gans & O'Sullivan, Talanta, 2000, 51 (1): 33-37) to refine for the E° and slope. […]
(§2) Incremental Spectrophotometric Titrations. […] For the 3,4,3-LI(CAM) protonation (and Eu(III)-3,4,3-LI(CAM) complexes), titrations were performed with an initial concentration of 50 μM of 3,4,3-LI(CAM) (and 50 μM of Eu(III)) resulting in absorbance values included between 0 and 1.0 throughout the titration. […]
(§3) Data Treatment. […] All metal and chelator concentrations were held at estimated values determined from the volume of standardized stock solutions. All species formed with 3,4,3-LI(CAM) were considered to have significant absorbance to be observed in the UV-vis spectra and were therefore included in the refinement process. […]

[3] = Incremental spectrophotometric titrations: stability constants of Eu(III) complexes; type: physicochemical; conditions: 1 equivalent of Eu(III); calculated speciation diagram
Experimental: as §1, §2, §3

[4] = Incremental spectrophotometric titrations: stability constants of Th(IV) complexes (DTPA competition); type: physicochemical; conditions: 1 equivalent of Th(IV); calculated speciation diagram
Experimental: as §1, §2, §3

[5] = Incremental spectrophotometric titrations: stability constants of Zr(IV) complexes (DTPA competition); type: physicochemical; conditions: 1 equivalent of Zr(IV); calculated speciation diagram
Experimental: as §1, §2, §3

[6] = molecular target: T1, recombinant wild-type Scn (Homo sapiens, UniProt P80188); assay: Fluorescence Quenching Binding Assay
T1 construct: made in house
Experimental: Metal, Chelator, and Protein Working Solutions. The trivalent lanthanide Ln(III) working stock solutions were prepared in standardized 0.1 M HCl. A Zr(IV) stock solution was prepared by dissolving ZrCl4 in 3.0 M H2SO4, to prevent hydrolysis. The metal salt ZrCl4 was handled and stored in a glovebox kept under inert atmosphere. The Zr(IV) stock solution was standardized against EDTA, with xylene orange as the indicator (Welcher, F. J. The analytical uses of ethylenediamine tetraacetic acid; 1958). A Th(IV) stock solution was prepared in 0.1 M H2SO4. […]
Fluorescence Quenching Binding Assay. […] Fluorescence quenching of Scn was measured after each titrant addition on a HORIBA Jobin Yvon IBH FluoroLog-3 spectrofluorimeter, with 3 nm slit band-pass, using the characteristic excitation and emission wavelengths λexc=280 and λem=320-360 nm. The intrinsic fluorescence in proteins is generally attributed to tryptophan residues; two residues W31 and W79 are found in the proximity of the Scn binding site. Fluorescence values were corrected for dilution upon addition of titrant. Fluorescence data were analyzed by nonlinear regression analysis of fluorescence response versus chelator concentration using a one-site binding model as described elsewhere. […]

[7] = In Vivo Biodistribution Assay with ^238Pu tracer; design: species or system CD-1 mice; conditions: mice, intravenous
Experimental: In Vivo Biodistribution Assay. All procedures and protocols used in the presented in vivo studies were reviewed and approved by the Institutional Animal Care and Use Committee at Lawrence Berkeley National Laboratory and performed in AAALAC accredited facilities. The animals used were adult female CD-1 mice (180±7 days old, 40.8±5.8 g). Solutions of ^238Pu complexed by 3,4,3-LI(CAM) and Scn:3,4,3-LI(CAM) were prepared in situ at molar ratios protein:ligand:^238Pu of 0:100:1 and 100:100:1, respectively by mixing and incubating the appropriate quantities of ^238Pu(NO3)4, ligand, and protein in phosphate-buffered saline (PBS) to reach a ^238Pu concentration of 12 ng L-1. Protein solutions were washed thrice with PBS using 10 kDa molecular weight cut-off membrane-based centrifugal filters, and all solutions were filter-sterilized (0.22 μm) prior to injection. Under isoflurane anesthesia, groups of three normally fed mice were injected intravenously with 0.2 mL of a complex solution (370 Bq per mouse). After injection of the ^238Pu tracer, mice were weighed, identified, and housed in groups of three in plastic stock cages lined with a 0.5 cm layer of highly absorbent low-ash pelleted cellulose bedding (Alpha-dri) for separation of urine and feces. Mice were given water and food ad libitum and euthanized at 4, 24, or 48 h after tracer injection. All experiments using ^238Pu tracers were managed as metabolic balance studies, in which tissues and excreta were analyzed for ^238Pu by liquid scintillation counting on a Perkin Elmer Packard Tri-Carb model B4430. The methods of sample collection, preparation, radioactivity measurements, and data reduction have been published previously (Sturzbecher-Hoehne, et al., Dalton Transactions, 2011, 40 (33): 8340-8346: Kullgren, et al., Toxicology mechanisms and methods, 2013, 23 (1), 18-26; Durbin, et al., Health physics 2000, 78 (5): 511-521). Those methods provide quantitative measurements of radioactivity in biological samples; material recoveries averaged 99% of the amount injected in these experiments.
Biodistribution Evaluation. To evaluate the in vivo retention and excretion patterns of M(IV)-3,4,3-LI(CAM) complexes and their Scn adducts, ^238Pu(IV) was used as a radiolabel. ^238Pu(IV) likely behaves similarly to Th(IV) and Zr(IV) (the ionic radius of Pu^4+ is included between those of Th^4+ and Zr^4+) (Sturzbecher-Hoehne, et al., Inorganic Chemistry, 2015, 54 (7): 3462-3468) but allows for more accurate metabolic balance experiments due to its relatively long radioactive half-life (87.8 yr) and low specific activity (0.63 TBq/g), compared to the therapeutic ^227Th (18.68 d; 1139 TBq/g) and imaging ^89Zr (78.42 h; 16,630 TBq/g) isotopes. […] In this in vivo stability experiment, ^238Pu-ligand complex solutions were formed in situ (Ligand:Pu and Scn:Chelator:Pu ratios of 100:1 and 100:100:1, respectively) and administered intravenously. Mice were euthanized 4, 24, or 48 h after the metal injection, and tissues and excreta were radioanalyzed for ^238Pu content (FIG. 14).

O=C(NCCCN(CCCCN(CCCNC(=O)c1cccc(=O)n1O)C(=O)c1cccc(=O)n1O)C(=O)c1cccc(=O)n1O)c1cccc(=O)n1O [3,4,3-LI(1,2-HOPO)]
pH at which 4+ metal complexes are formed ([1]; 4+ metals, very acidic conditions): < 0 | pH at which Eu(III) species appear ([1]; Eu(III), same conditions): 1

O=C(NCCCN(CCCCN(CCCNC(=O)c1cccc(O)c1O)C(=O)c1cccc(O)c1O)C(=O)c1cccc(O)c1O)c1cccc(O)c1O [3,4,3-LI(CAM)]
overall acidity ΣpKa5-8 [2]: 45.4 | pH at which complexation starts [3]: 5 | pH at which complexes start forming [4]: ~3 | pH at which complexes start forming [5]: ~3 | Kd [6]: 1.2 ± 0.4 nM

B1: Scn:[Pu^IV(3,43-LI(CAM))]: siderocalin adduct of the ^238Pu(IV) complex of 3,4,3-LI(CAM), Scn:chelator:Pu 100:100:1 (conjugate, UniProt P80188 21-198, looked up)
Neutrophil …: QDSTSDLIPAPPLSKVPLQQNFQDNQFQGKWYVVGLAGNAILREDKDPQKMYATIYELKEDKSYNVTSVLFRKKKCDYWIRTFVPGCQPGEFTLGNIKSYPGLTSYLVRVVSTNYNQHAMVFFKKVSQNREYFKITLYGRTKELTSELKENFIRFSKSLGLPENHIVFPVPIDQCIDG
modifications: bound Pu(IV)-3,4,3-LI(CAM) complex
in vivo stability [7]: high in vivo stability | injected ^238Pu excreted by 48 hours ([7]; 370 Bq per mouse, 48 h): 30% | ^238Pu found in the kidneys ([7]; 4 h after administration): up to 52% | ^238Pu in urine versus feces ([7]; all time points (4, 24, 48 h)): more ^238Pu was found in the urine than in the feces | retention and excretion pattern (kidney vs. liver) ([7]; early time points): favors elimination through the renal system
